Test results published in patent US11478451B1, “Macrocyclic chlorine substituted indole derivatives” (Bayer Aktiengesellschaft, priority 2017, dated 2022).
Where a name gives a salt, the structure may show the parent alone. Read-outs that look alike come from different tables or passages of the source. Values belong to the molecule of their own block, whether it stands above or below them.

Experiments:
HMC-1-8 cells = test: Antiproliferation assay (CellTiter-Glo, 72 h), HMC-1-8; format: cell-based; details: IC50, median, HMC-1-8, 72 h, read-out: Antiproli HMC-1-8 [M] median
Procedure: (§1) Assessment of the Anti-Proliferative Effect of Compounds in Different Cell Lines
(§2) The impact of compounds on the proliferation of different cell lines was assessed using the CellTiter-Glo® Luminescent Cell Viability reagent from Promega (G7573).
(§3) In parallel, cells were plated in a reference (day 0) plate for time zero determination.
(§4) Rim wells were excluded. The cells were incubated for 72 h hours in a humidified incubator at 37° C. The day 0 plate was measured by adding 30 μL/well of CTG solution (CellTiter-Glo® Luminescent Cell Viability reagent, Promega G7573) to time zero wells in the reference plate followed by a 10 minutes incubation and luminescence reading at 0.1 ms. using the PHERAstar FS microplate reader (BMG Labtech).
(§5) After 72 h incubation, the treated plates were measured in the same way as the day 0 plate mentioned above.

AMO-1 cells = test: Antiproliferation assay (CellTiter-Glo, 72 h), AMO-1; format: cell-based; details: IC50, median, AMO-1, 72 h, read-out: Antiproli AMO-1 [M] median
Summary of the method: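 Cells were incubated with compounds for 72 h at 37°C. Viability was then read by CellTiter-Glo luminescence, and a parallel day 0 plate read the same way gave the time-zero signal.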

SUDHL5 cells [1] = test: Induction of cytotoxicity (CellTiter-Glo, 5 h), SUDHL5; details: SUDHL5, 5 h
SUDHL10 cells [2] = test: Induction of cytotoxicity (CellTiter-Glo, 5 h), SUDHL10; details: SUDHL10, 5 h
Procedure: Therefore, cytotoxicity assays were run in parallel in SUDHL5 and SUDHL10 cells.
The different cell lines were plated in culture medium (RPMI 1640 [GIBCO #22400-089] supplemented with 10% Fetal Bovine Serum) at a density of 3,300 cells in 30 μL/well in a sterile, solid black, flat bottom, polystyrene, TC-treated 384-well microplate (Corning #3571) using Multidrop Combi Reagent Dispenser. As a control, medium without cells was also added to the plate. Cells were incubated in a humidified incubator at 37° C. overnight. […] Rim wells were excluded. The cells were incubated for 5 h hours in a humidified incubator at 37° C. After this incubation, 30 μL of CellTiter-Glo® Luminescent Cell Viability reagent (Promega, G7573) was added to each well using the Multidrop Combi Reagent Dispenser, followed by 15 min incubation on a shaker at room temperature. Finally, luminescence was read at 0.1 ms, with a gain of 3000 using the PHERAstar FS microplate reader (BMG Labtech).

SUDHL10 cells [3] = test: Induction of caspase-3/7 activity (Caspase-Glo 3/7), SUDHL10; format: cell-based; details: EC50, median, SUDHL10, 3 h treatment
Summary of the method: (§6)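 DLBCL lines treated with compounds for 3 h at 37 °C in a humidified incubator; caspase-3/7 activity read with Caspase-Glo 3/7 luminescent reagent. Medium-only background subtracted from all values.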

SUDHL5 cells [4] = test: Antiproliferation assay (CellTiter-Glo, 72 h), SUDHL5; format: cell-based; details: IC50, median, SUDHL5, 72 h, read-out: Antiproli SUDHL5 [M] (median)
Procedure: as §1, §2, §3, §4, §5

SUDHL5 cells [5] = test: Induction of caspase-3/7 activity (Caspase-Glo 3/7), SUDHL5; format: cell-based; details: EC50, median, SUDHL5, 3 h treatment
Summary of the method: as §6

[6] = Homo sapiens, SU-DHL-5, 5 h, read-out: Cytotox SUDHL5 [M] (median), IC50, median
[7] = Homo sapiens, SU-DHL10, 5 h, read-out: Cytotox SUDHL10 [M] (median), IC50, median
[8] = read-out: Cytotox SUDHL5 [M] (median), IC50, median

EC50 (SUDHL10 cells [3]; Homo sapiens, SU-DHL10, 3 h): 930 nM
SMILES: CCc1nn(C)c2c1-c1c(Cl)ccc3c(CCCOc4cccc5cc(F)ccc45)c(C(=O)O)n(c13)CCCCOC2 (single isomer, unassigned; enantiomer 1) [Example 34, (+)-4-chloro-3-ethyl-7-{3-[(6-fluoronaphthalen-1-yl)oxy]propyl}-1-methyl-1,10,11,12,13,15-hexahydropyrazolo[4′,3′:9,10][1,6]oxazacycloundecino[8,7,6-hi]indole-8-carboxylic acid (Enantiomer 1)]
IC50 (HMC-1-8 cells; 72 h): 2e-06 M
IC50 (AMO-1 cells; Homo sapiens, AMO1, 72 h): 1.4e-06 M

EC50 (SUDHL10 cells [3]; Homo sapiens, SU-DHL10, 3 h): 1300 nM
IC50 (SUDHL5 cells [4]; Homo sapiens, SU-DHL-5, 72 h): 1.5e-06 M
EC50 (SUDHL5 cells [5]; Homo sapiens, SU-DHL-5, 3 h): 710 nM
SMILES: CCc1c2c(nn1C)CCCCCCn1c(C(=O)O)c(CCCOc3cccc4cc(F)ccc34)c3ccc(Cl)c-2c31 (single isomer, unassigned; enantiomer 1) [Example 70, (+)-4-chloro-3-ethyl-7-{3-[(6-fluoronaphthalen-1-yl)oxy]propyl}-2-methyl-10,11,12,13,14,15-hexahydro-2H-pyrazolo[4′,3′:4,5]azacycloundecino[3,2,1-hi]indole-8-carboxylic acid-N-ethylethanamine salt (Enantiomer 1)]
IC50 (SUDHL5 cells [1]; [6]): 1e-06 M
IC50 (SUDHL10 cells [2]; [7]): 1.7e-06 M
IC50 (AMO-1 cells; Homo sapiens, AMO1, 72 h): 1.1e-06 M

EC50 (SUDHL10 cells [3]; listed as 075): 3500 nM
IC50 (SUDHL5 cells [4]; listed as 075): 1.6e-06 M
EC50 (SUDHL5 cells [5]; listed as 075): 550 nM
SMILES: CCc1c2c(nn1C)CN(CC(F)F)CCCCn1c(C(=O)O)c(CCCOc3cccc4cc(F)ccc34)c3ccc(Cl)c-2c31 (single isomer, unassigned; enantiomer 1) [Example 75, (+)-4-chloro-14-(2,2-difluoroethyl)-3-ethyl-7-{3-[(6-fluoronaphthalen-1-yl)oxy]propyl}-2-methyl-10,11,12,13,14,15-hexahydro-2H-pyrazolo[3′,4′:8,9][1,6]diazacycloundecino[10,11,1-hi]indole-8-carboxylic acid-N-ethylethanamine salt (Enantiomer 1)]
IC50 (SUDHL5 cells [1]; read-out: Cytotox SUDHL5 [M] (median), IC50, median, listed as 075): 9.1e-07 M
IC50 (SUDHL10 cells [2]; read-out: Cytotox SUDHL10 [M] (median), IC50, median, listed as 075): 1.4e-06 M
IC50 (AMO-1 cells; listed as 075): 4.8e-06 M

EC50 (SUDHL5 cells [5]): 360 nM
SMILES: Cc1c2c(nn1CCCN1CCN(C)CC1)COCCCCn1c(C(=O)O)c(CCCOc3cccc4ccccc34)c3ccc(Cl)c-2c31 (single isomer, unassigned; enantiomer 2) [Example 50, (−)-4-chloro-3-methyl-2-[3-(4-methylpiperazin-1-yl)propyl]-7-{3-[(naphthalen-1-yl)oxy]propyl}-2,10,11,12,13,15-hexahydropyrazolo[4′,3′:9,10][1,6]oxazacycloundecino[8,7,6-hi]indole-8-carboxylic acid (Enantiomer 2)]
IC50 (SUDHL5 cells [1]; [8]): 4.4e-07 M
IC50 (HMC-1-8 cells; 72 h): 3.1e-06 M
IC50 (AMO-1 cells): 1.3e-06 M

EC50 (SUDHL10 cells [3]; Homo sapiens, SU-DHL10, 3 h): 3600 nM
IC50 (SUDHL5 cells [4]; Homo sapiens, SU-DHL-5, 72 h): 1.6e-06 M
EC50 (SUDHL5 cells [5]; Homo sapiens, SU-DHL-5, 3 h): 3000 nM
SMILES: CCc1c2c(nn1C)CN(CCC(C)(C)O)CCCCn1c(C(=O)O)c(CCCOc3cccc4cc(F)ccc34)c3ccc(Cl)c-2c31 (single isomer, unassigned; enantiomer 2) [Example 141, 4-chloro-3-ethyl-7-{3-[(6-fluoronaphthalen-1-yl)oxy]propyl}-14-(3-hydroxy-3-methylbutyl)-2-methyl-10,11,12,13,14,15-hexahydro-2H-pyrazolo[3′,4′:8,9][1,6]diazacycloundecino[10,11,1-hi]indole-8-carboxylic acid (Enantiomer 2)]
IC50 (SUDHL5 cells [1]; [6]): 2.6e-06 M
IC50 (SUDHL10 cells [2]; [7]): 3.6e-06 M
IC50 (AMO-1 cells; Homo sapiens, AMO1, 72 h): 2.4e-06 M

EC50 (SUDHL10 cells [3]): 4900 nM
IC50 (SUDHL5 cells [4]): 3.1e-07 M
EC50 (SUDHL5 cells [5]): 5000 nM
SMILES: CCc1c2c(nn1C)COCC1(CCn3c(C(=O)O)c(CCCOc4cccc5cc(F)ccc45)c4ccc(Cl)c-2c43)CC1 [Example 111, (+)-4′-chloro-3′-ethyl-7′-{3-[(6-fluoronaphthalen-1-yl)oxy]propyl}-2′-methyl-2′,10′,11′,15′-tetrahydro-13′H-spiro[cyclopropane-1,12′-pyrazolo[4′,3′:9,10][1,6]oxazacycloundecino[8,7,6-hi]indole]-8′-carboxylic acid-N-ethylethanamine salt]
IC50 (SUDHL5 cells [1]; [8]): 6e-06 M
IC50 (SUDHL10 cells [2]; read-out: Cytotox SUDHL10 [M] (median), IC50, median): 6.7e-06 M
IC50 (AMO-1 cells): 8.4e-06 M

The remaining lines, values behind:

SMILES: Cc1c2c(nn1C)CN(C)CCCCn1c(C(=O)O)c(CCCOc3cccc4ccccc34)c3ccc(Cl)c-2c31 (racemic) [Example 11, (rac)-4-chloro-2,3,14-trimethyl-7-[3-(naphthalen-1-yloxy)propyl]-10,11,12,13,14,15-hexahydro-2H-pyrazolo[3′,4′:8,9][1,6]diazacycloundecino[10,11,1-hi]indole-8-carboxylic acid]
IC50 (HMC-1-8 cells; 72 h): 4.2e-06 M
IC50 (AMO-1 cells; Homo sapiens, AMO1, 72 h): 7.3e-07 M

SMILES: CCc1c2c(nn1C)CN(CCCO)CCCCn1c(C(=O)O)c(CCCOc3cccc4cc(F)ccc34)c3ccc(Cl)c-2c31 (racemic) [Example 139, (rac)-4-chloro-3-ethyl-7-{3-[(6-fluoronaphthalen-1-yl)oxy]propyl}-14-(3-hydroxypropyl)-2-methyl-10,11,12,13,14,15-hexahydro-2H-pyrazolo[3′,4′:8,9][1,6]diazacycloundecino[10,11,1-hi]indole-8-carboxylic acid]
IC50 (HMC-1-8 cells; 72 h): 5.7e-06 M
IC50 (AMO-1 cells; Homo sapiens, AMO1, 72 h): 4.4e-07 M

SMILES: Cc1c2c(nn1C)COCCCCn1c(C(=O)O)c(CCCOc3cccc4cc(F)ccc34)c3ccc(Cl)c-2c31 (single isomer, unassigned; enantiomer 1) [Example 16, (−)-4-chloro-7-{3-[(6-fluoronaphthalen-1-yl)oxy]propyl}-2,3-dimethyl-2,10,11,12,13,15-hexahydropyrazolo[4′,3′:9,10][1,6]oxazacycloundecino[8,7,6-hi]indole-8-carboxylic acid (Enantiomer 1)]
IC50 (SUDHL5 cells [1]; [6]): 3.3e-06 M
IC50 (SUDHL10 cells [2]; [7]): 4.9e-06 M
EC50 (SUDHL10 cells [3]; Homo sapiens, SU-DHL10, 3 h): 5200 nM
IC50 (SUDHL5 cells [4]; Homo sapiens, SU-DHL-5, 72 h): 1.5e-06 M
EC50 (SUDHL5 cells [5]; Homo sapiens, SU-DHL-5, 3 h): 3600 nM
IC50 (AMO-1 cells; Homo sapiens, AMO1, 72 h): 8.9e-06 M

SMILES: CCc1c2c(nn1C)CN(CCC(C)(C)O)CCCCn1c(C(=O)O)c(CCCOc3cccc4cc(F)ccc34)c3ccc(Cl)c-2c31 (single isomer, unassigned; enantiomer 1) [Example 140, 4-chloro-3-ethyl-7-{3-[(6-fluoronaphthalen-1-yl)oxy]propyl}-14-(3-hydroxy-3-methylbutyl)-2-methyl-10,11,12,13,14,15-hexahydro-2H-pyrazolo[3′,4′:8,9][1,6]diazacycloundecino[10,11,1-hi]indole-8-carboxylic acid (Enantiomer 1)]
IC50 (HMC-1-8 cells; 72 h): 1.4e-06 M

SMILES: CCc1c2c(nn1C)CN(CCN1CCOCC1)CCCCn1c(C(=O)O)c(CCCOc3cccc4cc(F)ccc34)c3ccc(Cl)c-2c31 (single isomer, unassigned; enantiomer 1) [Example 142, 4-chloro-3-ethyl-7-{3-[(6-fluoronaphthalen-1-yl)oxy]propyl}-2-methyl-14-[2-(morpholin-4-yl)ethyl]-10,11,12,13,14,15-hexahydro-2H-pyrazolo[3′,4′:8,9][1,6]diazacycloundecino[10,11,1-hi]indole-8-carboxylic acid (Enantiomer 1)]
IC50 (HMC-1-8 cells): 7.5e-07 M

SMILES: CCc1nn(CCN2CCOCC2)c2c1-c1c(Cl)ccc3c(CCCOc4cccc5ccccc45)c(C(=O)O)n(c13)C/C=C\CN(C)C2 (single isomer, unassigned; enantiomer 2) [Example 44, (11Z)-4-chloro-3-ethyl-14-methyl-1-[2-(morpholin-4-yl)ethyl]-7-{3-[(naphthalen-1-yl)oxy]propyl}-10,13,14,15-tetrahydro-1H-pyrazolo[3′,4′:8,9][1,6]diazacycloundecino[10,11,1-hi]indole-8-carboxylic acid-ammonia salt (Enantiomer 2)]
IC50 (SUDHL5 cells [1]; [8]): 7e-07 M
IC50 (HMC-1-8 cells; 72 h): 2.1e-06 M
IC50 (AMO-1 cells): 1.1e-06 M
